From patent US10100010B1, “4-methoxy pyrrole derivatives or salts thereof and pharmaceutical composition comprising the same” (Daewoong Pharmaceutical Co., Ltd., priority 2015, dated 2018)
Counter-ions that a name gives are not always drawn. Like-named read-outs stand apart in the source and are kept apart here.

How the values were obtained:
[1] = tested on: basal gastric acid secretion in pylorus-ligated rats; test: Inhibitory effects on basal gastric acid secretion in pylorus-ligated rats (Shay's rat model); format: in vivo, Sprague Dawley (SD) rats; settings: 2.0 mg/kg into the duodenum, 5 hours after ligation
Experimental: Inhibitory effects of the compounds prepared in Examples 2, 8 and 22 on basal gastric acid secretion were measured according to Shay's rat model (Shay, H., et al., 1945, gastroenterology, 5, p 43-61). Male Sprague Dawley (SD) rats (body weight 180-220 g) were divided into 4 groups (n=6-7) and fasted for 18 hours with free access to water. Under isoflurane anesthesia, the abdomens of the rats were incised and then the pylorus was ligated. Immediately after ligation, control group was administered with 2 mL/kg of 0.5% methyl cellulose (MC) aqueous solution into the duodenum, and the other groups were administered with test compounds suspended in 0.5% methyl cellulose (MC) aqueous solution at a dose of 2.0 mg/kg/2 ml. 5 hours after ligation, the test animals were sacrificed, and gastric contents were removed. The removed contents were centrifuged at 4,000×g for 10 minutes and the supernatant was separated to obtain the gastric juice. The amount and pH of the gastric juice were measured and the acidity in the gastric juice was measured by 0.1N NaOH volume (ueq/mL) required for the titration of gastric acid to pH 7.0. Total acid output was measured by multiplying the acidity of the gastric juice by the amount of the gastric juice. % inhibitory activity of test compounds were calculated according to the following equation, and the results are shown in Table 2. % inhibitory activity of test compound=[(total acid output of control group-total acid output of the group treated with test compounds)/total acid output of control group]×100 [Equation 1]

M1 = target: T1, M1 (Homo sapiens, UniProt P11229); test: GPCR Calcium Flux assay (FLIPR tetra, Eurofins), M1; format: cell-based; settings: for inhibition at 10 µM: single concentration of 10 uM, read-out: inhibition rate (%) M1; for IC50: 8 concentrations 10 to 0.0006 uM, read-out: 50% inhibitory concentration (IC50) M1
T1 sequence (P11229 1-460): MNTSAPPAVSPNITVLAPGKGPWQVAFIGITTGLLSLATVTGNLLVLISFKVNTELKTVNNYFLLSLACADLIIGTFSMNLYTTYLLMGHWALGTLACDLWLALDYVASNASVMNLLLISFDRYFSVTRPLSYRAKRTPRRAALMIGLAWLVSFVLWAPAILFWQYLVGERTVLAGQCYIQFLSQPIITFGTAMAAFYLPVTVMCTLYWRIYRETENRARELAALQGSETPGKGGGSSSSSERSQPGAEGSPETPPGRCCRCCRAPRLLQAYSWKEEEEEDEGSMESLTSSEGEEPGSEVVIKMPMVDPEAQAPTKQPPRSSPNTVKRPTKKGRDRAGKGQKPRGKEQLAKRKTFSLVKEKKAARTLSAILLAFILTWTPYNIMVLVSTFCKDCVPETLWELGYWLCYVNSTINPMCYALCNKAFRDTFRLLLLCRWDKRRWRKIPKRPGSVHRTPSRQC
Experimental: (§1) In order to confirm whether the compounds prepared in the above Examples act as an agonist or antagonist against GPCR Target, Calcium Flux assay was performed in an assay plate in which the compounds prepared in the Examples, vehicle controls, and reference compounds were added, using a Fluorometric imaging plate reader (FLIPR tetra) equipment.
(§2) Calcium Flux assay was evaluated by entrusting the GPCR profiler assay in Safety panel assays with Eurofins. By using the Fluo-8AM calcium dye, excitation was measured at a wavelength in the range of 470 to 495 nm and Emission was measured at a wavelength in the range of 515-575 nm. GPCR Assay Buffer for Calcium Flux assay was prepared by adding 20 mM of HEPES and 2.5 mM of Probenecid to Hanks Balanced Salt Solution (HBSS) to have pH 7.4. The Compounds of Examples for evaluation of the GPCR were diluted with DMSO at a concentration of 10 mM to make a stock and then prepared by diluting in the GPCR Assay Buffer at the concentration equivalent to three times the final concentration. First, for the evaluation of GPCRs, the inhibitory activity of the compounds of the Examples was evaluated at a single concentration of 10 uM, and then the respective selected targets were four fold-diluted from 10 uM to the low side to calculate 50% inhibitory concentration (IC50), prepared at the total 8 concentrations of 10, 2.5, 0.62, 0.15, 0.04, 0.01, 0.0024, 0.0006 uM, and Calcium Flux assay for GPCR was conducted. In order to evaluate the agonist and antagonist, % inhibition rate against GPCR activity before and after treatment of the compounds and the inhibitory activity of the compounds of the Examples were determined.
(§3) As a result, when the efficacy of […] and acetylcholine of the compounds prepared in the Examples was 100%, the inhibition rate (%) at a single concentration of 10 uM was evaluated and shown in Table 8.

M2 = target: T2, M2 (Homo sapiens, UniProt P08172); test: GPCR Calcium Flux assay (FLIPR tetra, Eurofins), M2; format: cell-based; settings: for inhibition at 10 µM: single concentration of 10 uM, read-out: inhibition rate (%) M2; for IC50: 8 concentrations 10 to 0.0006 uM, read-out: 50% inhibitory concentration (IC50) M2
T2 sequence (P08172 1-466): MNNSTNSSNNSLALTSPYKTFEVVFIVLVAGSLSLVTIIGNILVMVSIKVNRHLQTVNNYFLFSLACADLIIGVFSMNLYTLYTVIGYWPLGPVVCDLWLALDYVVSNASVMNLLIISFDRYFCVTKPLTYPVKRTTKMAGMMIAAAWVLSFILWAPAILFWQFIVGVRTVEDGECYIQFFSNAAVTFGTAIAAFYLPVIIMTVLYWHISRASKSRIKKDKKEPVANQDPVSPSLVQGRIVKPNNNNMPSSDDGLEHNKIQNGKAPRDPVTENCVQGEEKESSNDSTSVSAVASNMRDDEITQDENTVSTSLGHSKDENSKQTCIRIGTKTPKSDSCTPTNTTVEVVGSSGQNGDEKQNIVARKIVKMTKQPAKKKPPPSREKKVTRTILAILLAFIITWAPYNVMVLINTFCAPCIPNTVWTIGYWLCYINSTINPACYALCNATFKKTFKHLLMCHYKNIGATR
Experimental: as §1, §2, §3

5-HT2A = 5-HT2A (Homo sapiens, UniProt P28223); test: GPCR Calcium Flux assay (FLIPR tetra, Eurofins), 5-HT2A; format: cell-based; settings: for inhibition at 10 µM: read-out: inhibition rate (%) 5-HT2A; for IC50: 8 concentrations 10 to 0.0006 uM, read-out: 50% inhibitory concentration (IC50) 5-HT2A
Experimental: as §1, §2, §3

5-HT2A, sequence (P28223 whole entry): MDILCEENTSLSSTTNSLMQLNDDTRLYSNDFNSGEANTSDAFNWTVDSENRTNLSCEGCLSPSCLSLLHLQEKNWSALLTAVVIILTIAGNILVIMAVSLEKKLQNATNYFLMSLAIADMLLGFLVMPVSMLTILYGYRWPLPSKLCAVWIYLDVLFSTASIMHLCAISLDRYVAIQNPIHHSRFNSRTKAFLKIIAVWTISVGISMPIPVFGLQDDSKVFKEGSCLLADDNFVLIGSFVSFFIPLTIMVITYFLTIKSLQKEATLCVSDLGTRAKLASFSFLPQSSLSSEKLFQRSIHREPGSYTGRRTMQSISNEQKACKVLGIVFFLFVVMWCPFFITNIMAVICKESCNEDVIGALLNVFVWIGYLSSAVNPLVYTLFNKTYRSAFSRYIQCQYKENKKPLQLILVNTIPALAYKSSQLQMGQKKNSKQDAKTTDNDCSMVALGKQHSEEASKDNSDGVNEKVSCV

Structure (SMILES) | % inhibitory activity (total acid output) [1] [%] | inhibition at 10 µM (M1) [%] | inhibition at 10 µM (M2) [%] | inhibition at 10 µM (5-HT2A) [%] | IC50 (M1) [nM] | IC50 (M2) [nM] | IC50 (5-HT2A) [nM] | inhibition at 10 µM (5-HT2A; single concentration of 10 uM) [%]
CNCc1cn(S(=O)(=O)c2cccc(C(F)(F)F)c2)c(-c2ccccc2F)c1OC [Example 2, hydrochloride] | 93.5 | 92.7 | -4.7 | 39.5 | – | – | – | –
CNCc1cn(S(=O)(=O)c2cccc(F)c2)c(-c2c(F)cc(F)cc2F)c1OC.Cl [Example 22, 1-(1-((3-fluorophenyl)sulfonyl)-4-methoxy-5-(2,4,6-trifluorophenyl)-1H-pyrrol-3-yl)-N-methylmethanamine hydrochloride] | 88.1 | 98 | 100 | – | 370 | 1000 | 33 | 102
CNCc1cn(S(=O)(=O)c2cccc(F)c2)c(-c2ccc(F)cc2F)c1OC.Cl [Example 8, 1-(5-(2,4-difluorophenyl)-1-((3-fluorophenyl)sulfonyl)-4-methoxy-1H-pyrrol-3-yl)-N-methylmethanamine hydrochloride] | 90.5 | 101 | 101 | – | 140 | 650 | 110 | 102
